# Measurements from patent US11046716B2, “Beta-lactamase inhibitors” (priority 2015, dated 2021).
# Experiments:
# SHV-5 = target: T1, SHV-5 (Klebsiella pneumoniae, UniProt P0A3M1); assay: β-lactamase enzyme inhibition assay, SHV-5 (cefotaxime substrate); type: biochemical
# T1 construct: made in house; host or cells: E. coli BL21(DE3)
# Method in brief: (§1)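 Untagged enzyme from E. coli BL21(DE3), purified by Capto S then Superdex 75; 15 min 37 °C preincubation with inhibitor; KPC-2 read with imipenem at 300 nm, SHV-5 with cefotaxime at 260 nm, OXA-1 with nitrocefin 100 μM final at 486 nm; 10 min kinetic read; IC50 vs uninhibited wells.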
# KPC-2 = target: T2, KPC-2 (Klebsiella pneumoniae, UniProt Q9F663); assay: β-lactamase enzyme inhibition assay, KPC-2 (imipenem substrate); type: biochemical; settings: Class A; imipenem substrate, 300 nm; read-out: KPC-2
# T2 construct: made in house; host or cells: E. coli BL21(DE3)
# Method in brief: as §1
# VIM-2 = target: T3, VIM-2 (Escherichia coli, UniProt Q5U7L7); assay: β-lactamase enzyme inhibition assay, VIM-2 (nitrocefin substrate); type: biochemical; settings: Class B; nitrocefin substrate, 486 nm; read-out: VIM-2
# T3 construct: made in house; host or cells: E. coli BL21(DE3)
# Method in brief: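 Metallo-β-lactamase VIM-2 activity was tracked spectrophotometrically at 486 nm with 100 μM nitrocefin over 10 min, following 15 min preincubation with compound at 37 °C; inhibition was calculated per concentration.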
# AmpC = target: T4, AmpC (Enterobacter cloacae, UniProt P05364); assay: β-lactamase enzyme inhibition assay, p99 AmpC (nitrocefin substrate); type: biochemical
# T4 construct: made in house; host or cells: E. coli BL21(DE3)
# Method in brief: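 Untagged enzyme from E. coli BL21(DE3), purified by Capto S then Superdex 75; 15 min 37 °C preincubation with inhibitor; 10 min kinetic read; IC50 vs uninhibited wells.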
# OXA-48 = OXA-48 (UniProt Q6XEC0); assay: β-lactamase enzyme inhibition assay, Class D oxacillinase; type: biochemical; settings: read-out: OXA-48
# [1] = system: E. coli expressing the Class A Extended Spectrum Beta-Lactamase (ESBL) CTX-M-15; assay: Broth microdilution MIC assay with ceftazidime, E. coli CTX-M-15; type: cell-based; settings: Fixed CAZ (ceftazidime) 4 μg/mL; E. coli ESBL4 CTX-M-15
# Method in brief: (§2)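 In cation-adjusted Mueller Hinton broth, bacteria pre-grown 3-5 hours were exposed to test compound (2-fold, 16–0.125 μg/mL) plus a static 4 μg/ml β-lactam. A panel of control β-lactams was run alongside, and the compound MIC was judged by eye following 16-20 hours at 37° C.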
# [2] = system: E. cloacae expressing the Class C P99; assay: Broth microdilution MIC assay with ceftazidime, E. cloacae P99; type: cell-based; settings: Fixed CAZ (ceftazidime) 4 μg/mL; E. cl. 144200 p99 AmpC
# Method in brief: as §2
# [3] = system: K. pneumoniae expressing the Class A carbapenemase KPC-2; assay: Broth microdilution MIC assay with meropenem, K. pneumoniae KPC-2; type: cell-based; settings: Fixed Mero (meropenem) 4 μg/mL; K. p. 156319 KPC-3
# Method in brief: as §2
# [4] = system: P. aeruginosa expressing the Class B carbapenemase VIM-2; assay: Broth microdilution MIC assay with meropenem, P. aeruginosa VIM-2; type: cell-based; settings: Fixed Mero (meropenem) 4 μg/mL; P. aerug. 2775 VIM-2
# Method in brief: as §2
# [5] = system: K. pneumoniae expressing the class A carbapenemase KPC-2 and the class B carbapenemase VIM-4; assay: Broth microdilution MIC assay with meropenem, K. pneumoniae KPC-2 and VIM-4; type: cell-based; settings: Fixed Mero (meropenem) 4 μg/mL; K. p. A-1797 KPC-2 VIM-4
# Method in brief: as §2
# [6] = system: K. pneumoniae producing the Class D carbapenemase OXA-48; assay: Broth microdilution MIC assay with meropenem, K. pneumoniae OXA-48; type: cell-based; settings: Fixed Mero (meropenem) 4 μg/mL; K. p. 11978 OXA-48
# Method in brief: as §2
# T2 sequence (Q9F663 25-293, looked up): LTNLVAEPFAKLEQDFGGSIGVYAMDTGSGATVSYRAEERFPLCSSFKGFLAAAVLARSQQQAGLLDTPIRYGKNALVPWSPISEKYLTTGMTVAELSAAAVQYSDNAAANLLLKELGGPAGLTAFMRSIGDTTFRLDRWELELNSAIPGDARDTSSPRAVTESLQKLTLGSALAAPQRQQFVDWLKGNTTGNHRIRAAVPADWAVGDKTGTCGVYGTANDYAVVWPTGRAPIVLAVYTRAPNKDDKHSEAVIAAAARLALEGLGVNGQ
# T1 sequence (P0A3M1 22-286): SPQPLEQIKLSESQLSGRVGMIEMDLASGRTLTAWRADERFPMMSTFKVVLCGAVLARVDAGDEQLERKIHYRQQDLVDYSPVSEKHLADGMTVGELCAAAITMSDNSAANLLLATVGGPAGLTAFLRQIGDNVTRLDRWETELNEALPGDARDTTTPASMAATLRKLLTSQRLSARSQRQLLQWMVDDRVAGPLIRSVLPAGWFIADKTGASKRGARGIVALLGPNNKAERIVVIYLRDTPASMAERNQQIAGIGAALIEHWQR
# T4 sequence (P05364 21-381): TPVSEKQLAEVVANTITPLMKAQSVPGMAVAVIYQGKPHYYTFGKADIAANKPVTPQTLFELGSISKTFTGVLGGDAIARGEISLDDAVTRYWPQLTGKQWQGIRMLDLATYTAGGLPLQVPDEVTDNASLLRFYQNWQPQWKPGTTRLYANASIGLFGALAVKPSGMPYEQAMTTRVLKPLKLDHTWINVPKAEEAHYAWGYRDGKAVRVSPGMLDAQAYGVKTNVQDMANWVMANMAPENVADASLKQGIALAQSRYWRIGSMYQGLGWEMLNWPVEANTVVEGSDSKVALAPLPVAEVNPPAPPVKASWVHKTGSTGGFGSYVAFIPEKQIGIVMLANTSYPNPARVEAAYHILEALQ
SMILES,IC50 (SHV-5),IC50 (KPC-2),IC50 (VIM-2),IC50 (AmpC),IC50 (OXA-48),MIC (μg/mL) of Exemplary Compounds in presence of fixed β-lactams: E. coli ESBL4 CTX-M-15 [1],MIC (μg/mL) of Exemplary Compounds in presence of fixed β-lactams: E. cl. 144200 p99 AmpC [2],MIC (μg/mL) of Exemplary Compounds in presence of fixed β-lactams: K. p. 156319 KPC-3 [3],MIC (μg/mL) of Exemplary Compounds in presence of fixed β-lactams: P. aerug. 2775 VIM-2 [4],MIC (μg/mL) of Exemplary Compounds in presence of fixed β-lactams: K. p. A-1797 KPC-2 VIM-4 [5],MIC (μg/mL) of Exemplary Compounds in presence of fixed β-lactams: K. p. 11978 OXA-48 [6]
"NC1CCN(C(=O)c2cn(CC(=O)N[C@H]3Cc4cccc(C(=O)O)c4OB3O)nn2)CC1 [Example 82, (R)-3-(2-(4-(4-aminopiperidine-1-carbonyl)-1H-1,2,3-triazol-1-yl)acetamido)-2-hydroxy-3,4-dihydro-2H-benzo[e][1,2]oxaborinine-8-carboxylic acid]",< 100 nM,< 100 nM,100 to 1000 nM,< 100 nM,100 to 1000 nM,C (C represents an MIC of <1 μg/mL),C (C represents an MIC of <1 μg/mL),C (C represents an MIC of <1 μg/mL),C (C represents an MIC of <1 μg/mL),B (B represents an MIC between 1 and 16 μg/mL inclusive),C (C represents an MIC of <1 μg/mL)
"O=C(Cn1cc(C(=O)NC2CCNCC2)nn1)N[C@H]1Cc2cccc(C(=O)O)c2OB1O [Example 83, (R)-2-hydroxy-3-(2-(4-(piperidin-4-ylcarbamoyl)-1H-1,2,3-triazol-1-yl)acetamido)-3,4-dihydro-2H-benzo[e][1,2]oxaborinine-8-carboxylic acid]",100 to 1000 nM,100 to 1000 nM,< 100 nM,< 100 nM,100 to 1000 nM,C (C represents an MIC of <1 μg/mL),C (C represents an MIC of <1 μg/mL),C (C represents an MIC of <1 μg/mL),C (C represents an MIC of <1 μg/mL),B (B represents an MIC between 1 and 16 μg/mL inclusive),B (B represents an MIC between 1 and 16 μg/mL inclusive)
"O=C(Cn1cc(C(=O)N[C@@H]2CCNC2)nn1)N[C@H]1Cc2cccc(C(=O)O)c2OB1O [Example 84, (R)-2-hydroxy-3-(2-(4-(((R)-pyrrolidin-3-yl)carbamoyl)-1H-1,2,3-triazol-1-yl)acetamido)-3,4-dihydro-2H-benzo[e][1,2]oxaborinine-8-carboxylic acid]",100 to 1000 nM,< 100 nM,< 100 nM,< 100 nM,100 to 1000 nM,C (C represents an MIC of <1 μg/mL),C (C represents an MIC of <1 μg/mL),B (B represents an MIC between 1 and 16 μg/mL inclusive),C (C represents an MIC of <1 μg/mL),C (C represents an MIC of <1 μg/mL),B (B represents an MIC between 1 and 16 μg/mL inclusive)
"N[C@@H]1CCN(C(=O)c2cn(CC(=O)N[C@H]3Cc4cccc(C(=O)O)c4OB3O)nn2)C1 [Example 85, (R)-3-(2-(4-((R)-3-aminopyrrolidine-1-carbonyl)-1H-1,2,3-triazol-1-yl)acetamido)-2-hydroxy-3,4-dihydro-2H-benzo[e][1,2]oxaborinine-8-carboxylic acid]",100 to 1000 nM,100 to 1000 nM,100 to 1000 nM,< 100 nM,100 to 1000 nM,C (C represents an MIC of <1 μg/mL),C (C represents an MIC of <1 μg/mL),C (C represents an MIC of <1 μg/mL),C (C represents an MIC of <1 μg/mL),B (B represents an MIC between 1 and 16 μg/mL inclusive),B (B represents an MIC between 1 and 16 μg/mL inclusive)
"CC(C)(CN)CNC(=O)c1cn(CC(=O)N[C@H]2Cc3cccc(C(=O)O)c3OB2O)nn1 [Example 86, (R)-3-(2-(4-((3-amino-2,2-dimethylpropyl)carbamoyl)-1H-1,2,3-triazol-1-yl)acetamido)-2-hydroxy-3,4-dihydro-2H-benzo[e][1,2]oxaborinine-8-carboxylic acid]",100 to 1000 nM,< 100 nM,< 100 nM,100 to 1000 nM,1000 to 10000 nM,C (C represents an MIC of <1 μg/mL),C (C represents an MIC of <1 μg/mL),C (C represents an MIC of <1 μg/mL),C (C represents an MIC of <1 μg/mL),C (C represents an MIC of <1 μg/mL),B (B represents an MIC between 1 and 16 μg/mL inclusive)
"CNCCNC(=O)c1cn(CC(=O)N[C@H]2Cc3cccc(C(=O)O)c3OB2O)nn1 [Example 87, (R)-2-hydroxy-3-(2-(4-((2-(methylamino)ethyl)carbamoyl)-1H-1,2,3-triazol-1-yl)acetamido)-3,4-dihydro-2H-benzo[e][1,2]oxaborinine-8-carboxylic acid]",100 to 1000 nM,< 100 nM,< 100 nM,< 100 nM,1000 to 10000 nM,C (C represents an MIC of <1 μg/mL),C (C represents an MIC of <1 μg/mL),C (C represents an MIC of <1 μg/mL),C (C represents an MIC of <1 μg/mL),C (C represents an MIC of <1 μg/mL),B (B represents an MIC between 1 and 16 μg/mL inclusive)
"O=C(Cn1cc(C(=O)NC2CNC2)nn1)N[C@H]1Cc2cccc(C(=O)O)c2OB1O [Example 88, (R)-3-(2-(4-(azetidin-3-ylcarbamoyl)-1H-1,2,3-triazol-1-yl)acetamido)-2-hydroxy-3,4-dihydro-2H-benzo[e][1,2]oxaborinine-8-carboxylic acid]",100 to 1000 nM,< 100 nM,< 100 nM,< 100 nM,1000 to 10000 nM,C (C represents an MIC of <1 μg/mL),C (C represents an MIC of <1 μg/mL),B (B represents an MIC between 1 and 16 μg/mL inclusive),C (C represents an MIC of <1 μg/mL),C (C represents an MIC of <1 μg/mL),B (B represents an MIC between 1 and 16 μg/mL inclusive)
"O=C(Cn1cc(C2CCNC2)nn1)N[C@H]1Cc2cccc(C(=O)O)c2OB1O (stereo partly drawn) [Example 89, (3R)-2-hydroxy-3-(2-(4-(pyrrolidin-3-yl)-1H-1,2,3-triazol-1-yl)acetamido)-3,4-dihydro-2H-benzo[e][1,2]oxaborinine-8-carboxylic acid]",100 to 1000 nM,100 to 1000 nM,100 to 1000 nM,< 100 nM,1000 to 10000 nM,C (C represents an MIC of <1 μg/mL),C (C represents an MIC of <1 μg/mL),C (C represents an MIC of <1 μg/mL),C (C represents an MIC of <1 μg/mL),B (B represents an MIC between 1 and 16 μg/mL inclusive),B (B represents an MIC between 1 and 16 μg/mL inclusive)
